Data published in patent US12091402B2 (Avilar Therapeutics, Inc., priority 2021, dated 2024).
Like-named read-outs stand apart in the source and are kept apart here.

Legend:
[1] = target: IgG; experiment: Affinity to IgG by surface plasmon resonance (SPR); format: binding
Method: Immobilization levels ranging from 1000-1300 resonance units (RU) are obtained. The running buffer is 10 mM HEPES, pH 7.4, 400 mM NaCl, 0.005% P20, […].

[2] = test system: HepG2 cells; experiment: Cellular uptake assay of AF488-labeled antibody (HepG2); format: cell-based; conditions: HepG2 cells
How it was run: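 HepG2 cells given 100 nM AF488-labeled human IgG or DNP antibody plus serial dilutions of matching degrader (0.1% DMSO final), 6 h at 37° C. Methanol-fixed, DAPI-stained and imaged by high-content analysis. Value is the fraction of AF488-positive cells over total DAPI-counted cells.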

[3] = target: T1, ASGPR (Homo sapiens, UniProt P07306); experiment: Affinity to ASGPR by surface plasmon resonance (SPR)
T1 sequence (P07306 1-291): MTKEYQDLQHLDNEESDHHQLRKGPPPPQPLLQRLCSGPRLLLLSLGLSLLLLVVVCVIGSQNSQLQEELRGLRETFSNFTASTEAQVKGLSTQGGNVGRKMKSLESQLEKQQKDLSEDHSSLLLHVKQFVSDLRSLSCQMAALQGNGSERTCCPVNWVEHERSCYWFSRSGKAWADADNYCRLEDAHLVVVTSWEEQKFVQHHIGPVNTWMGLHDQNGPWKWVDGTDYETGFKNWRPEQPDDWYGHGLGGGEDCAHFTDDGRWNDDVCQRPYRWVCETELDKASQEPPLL

[4] = target: T2, ASGPR receptor on the cell surface (HepG2 cells) (Homo sapiens, UniProt P07306); experiment: Ternary complex formation assay (flow cytometry, HepG2); format: cell-based
T2 construct: host or cells: HepG2
T2 sequence (P07306 1-291): T1 sequence (P07306 1-291)
T2 sequence (P07307 1-311 partner): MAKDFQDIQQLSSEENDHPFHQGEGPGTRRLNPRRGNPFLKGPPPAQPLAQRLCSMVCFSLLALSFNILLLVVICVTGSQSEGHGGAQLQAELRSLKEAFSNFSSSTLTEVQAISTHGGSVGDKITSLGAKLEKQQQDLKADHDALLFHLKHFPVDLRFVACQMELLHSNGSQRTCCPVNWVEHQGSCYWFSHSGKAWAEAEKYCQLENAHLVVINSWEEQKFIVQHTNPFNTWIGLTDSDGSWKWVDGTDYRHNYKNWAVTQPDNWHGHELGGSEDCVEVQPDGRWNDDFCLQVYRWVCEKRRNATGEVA
How it was run: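 HepG2 cells (1×10^5/well) incubated 1 h at 4 °C with 100 nM AF488-labeled anti-human IgG plus serial IgG-based degrader, or 100 nM AF488 rabbit anti-DNP plus serial DNP-based degrader. After washing, cell-associated AF488 MFI read by flow cytometry; peak MFI marks optimal degrader concentration for ternary complex.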

CC(C)C[C@@H]1NC(=O)[C@H](Cc2c[nH]cn2)NC(=O)[C@H](Cc2c[nH]c3ccccc23)NC(=O)[C@H](C)NC(=O)[C@@H]2CSSC[C@H](NC(=O)[C@H](Cc3c[nH]c4ccccc34)NC(=O)[C@H](C(C)C)NC(=O)[C@H](CC(C)C)NC(=O)[C@H](CCC(=O)O)NC(=O)CNC1=O)C(=O)N[C@@H]([C@@H](C)O)C(=O)N1CCC[C@@H]1C(=O)N1C[C@@H](NC(=O)CCOCCOCCOCCOCCNC(=O)CCCc3cn(CCCCCC(=O)NC(COCCC(=O)NCCOCCOCCOCCOC[C@@]45CO[C@@H](O4)[C@H](NC(=O)C(F)(F)F)[C@@H](O)[C@H]5O)(COCCC(=O)NCCOCCOCCOCCOC[C@@]45CO[C@@H](O4)[C@H](NC(=O)C(F)(F)F)[C@@H](O)[C@H]5O)COCCC(=O)NCCOCCOCCOCCOC[C@@]45CO[C@@H](O4)[C@H](NC(=O)C(F)(F)F)[C@@H](O)[C@H]5O)nn3)C[C@H]1C(=O)N[C@@H](CC(=O)O)C(=O)N2 [Compound 95]
< 100 nM: Kd ([1]; SPR, read-out: IgG KD) | EC50 ([2]; read-out: Uptake EC50) | Kd [3] | EC50 [4]

CC(C)C[C@@H]1NC(=O)[C@H](Cc2c[nH]cn2)NC(=O)[C@H](Cc2c[nH]c3ccccc23)NC(=O)[C@H](C)NC(=O)[C@@H]2CSSC[C@H](NC(=O)[C@H](Cc3c[nH]c4ccccc34)NC(=O)[C@H](C(C)C)NC(=O)[C@H](CC(C)C)NC(=O)[C@H](CCC(=O)O)NC(=O)CNC1=O)C(=O)N[C@@H]([C@@H](C)O)C(=O)N1CCC[C@@H]1C(=O)N1C[C@@H](NC(=O)CCOCCOCCOCCOCCNC(=O)CCCc3cn(CCCCCC(=O)NC(COCCC(=O)NCCOCCOCCOCCOC[C@H]4OC[C@H](Nc5nccc(C(F)(F)F)n5)[C@@H](O)[C@H]4O)COCCC(=O)NCCOCCOCCOCCOC[C@H]4OC[C@H](Nc5nccc(C(F)(F)F)n5)[C@@H](O)[C@H]4O)nn3)C[C@H]1C(=O)N[C@@H](CC(=O)O)C(=O)N2 [Compound 16]
< 100 nM: Kd ([1]; Biacore 8K, 25° C., IgG on CM5 chip, read-out: IgG SPR Binding Kd) | Kd ([1]; SPR, read-out: IgG KD) | EC50 ([2]; 100 nM AF488-labeled antibody, 37° C. for 6 hours, class symbols, read-out: Uptake Assay EC50) | EC50 ([2]; read-out: Uptake EC50) | Kd [3] | Kd ([3]; read-out: ASGPR KD) | EC50 [4] | EC50 ([4]; read-out: Ternary Complex EC50)
